A short description of data set [1]: Oral gavage pharmacokinetics in rats, plasma oxycodone by LC-MS/MS. The following applies: 0.89 mg/kg oral, rat, 4 h.
Data set [2] in a line: Dissolution of test article in dosing formulation. The settings on record: Ex No. B1a, 6.72 mg/kg group, 0.5% methylcellulose vehicle, equivalent to 2 mg/mL oxymorphone HCl.

The structures appear in SMILES notation.

As to `CCCCCCCC/C=C\CCCCCCCC(=O)OC1=CC[C@@]2(O)[C@H]3Cc4ccc(OC)c5c4[C@@]2(CCN3C)[C@H]1O5.Cl` [Oxycodone Oleate, (4R,4aS,7aR,12bS)-4a-Hydroxy-9-methoxy-3-methyl-2,3,4,4a,5,7a-hexahydro-1H-4,12-methanobenzofuro[3,2-e]isoquinolin-7-yl oleate hydrochloride], the “Plasma Concentration (oxycodone) by Subject” value in data set [1] is listed as “BLQ”. Besides, the “Plasma Concentration (oxycodone), Mean” value in data set [1] (mean of the N quantifiable subjects) is on record as “BLQ”.

With `CN1CC[C@]23c4c5ccc(O)c4O[C@H]2C(OC(=O)[C@@H](O)c2ccccc2)=CC[C@@]3(O)[C@H]1C5.Cl` [Oxymorphone Mandelate], in data set [2], the “Solubility of test article in dosing formulation” value was “(not completely soluble)”.
